# In the supplement of paper PMC10307832:
# Columns and labels:
# Experiment in all cases: relative viability (nuclei count vs DMSO), 5 days (fraction); higher = more cells survive
# [1] = test system: NCI-H2023
# Summary of the method: (§1)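 Relative viability equals treated-well nuclei counts divided by vehicle-well nuclei counts. Counts came from 4× images of lung cancer cell lines grown in 1536-well plates for 5 days after pin-tool dosing on the day after seeding. Dosing used one drug alone or a fixed anchor-drug dose plus five library-drug doses (not always all listed) in √10 steps, and values are medians of duplicate plates.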
# [2] = test system: A-427
# Summary of the method: as §1
# [3] = test system: NCI-H1792
# Summary of the method: as §1
# [4] = test system: LC-2-ad
# Summary of the method: as §1
# [5] = test system: CAL-12T
# Summary of the method: as §1
# [6] = test system: NCI-H1734
# Summary of the method: as §1
# [7] = test system: NCI-H520
# Summary of the method: as §1
# [8] = test system: NCI-H2347
# Summary of the method: as §1
# [9] = test system: NCI-H2405
# Summary of the method: as §1
# [10] = test system: COR-L 105
# Summary of the method: as §1
# [11] = test system: EPLC-272H
# Summary of the method: as §1
# [12] = test system: NCI-H1915
# Summary of the method: as §1
# [13] = test system: NCI-H1395
# Summary of the method: as §1
# [14] = test system: NCI-H1563
# Summary of the method: as §1
# [15] = test system: SW 900
# Summary of the method: as §1
# [16] = test system: HCC-44
# Summary of the method: as §1
# [17] = test system: NCI-H1975
# Summary of the method: as §1
# [18] = test system: NCI-H2342
# Summary of the method: as §1
# [19] = test system: NCI-H838
# Summary of the method: as §1
# [20] = test system: SW 1573
# Summary of the method: as §1
# [21] = test system: HCC-15
# Summary of the method: as §1
# [22] = test system: LCLC-97TM1
# Summary of the method: as §1
# [23] = test system: UMC-11
# Summary of the method: as §1
smiles,measurement,setting,value
CCNC(=O)c1noc(-c2cc(C(C)C)c(O)cc2O)c1-c1ccc(CN2CCOCC2)cc1 [Luminespib] + Nc1nc2[nH]cc(CCc3ccc(C(=O)N[C@@H](CCC(=O)O)C(=O)O)cc3)c2c(=O)[nH]1 [Pemetrexed] (partner 0.2 µM),relative viability,[1]; first compound 0.002 µM,0.28
same,relative viability,[1]; first compound 0.006325 µM,0.244
same,relative viability,[1]; first compound 0.02 µM,0.0961
same,relative viability,[1]; first compound 0.06325 µM,0.071
same,relative viability,[1]; first compound 0.2 µM,0.0739
same,relative viability,[2]; first compound 0.002 µM,0.958
same,relative viability,[2]; first compound 0.006325 µM,0.25
same,relative viability,[2]; first compound 0.02 µM,0.812
same,relative viability,[2]; first compound 0.06325 µM,0.495
same,relative viability,[2]; first compound 0.2 µM,0.256
same,relative viability,[3]; first compound 0.002 µM,0.816
same,relative viability,[3]; first compound 0.006325 µM,0.615
same,relative viability,[3]; first compound 0.02 µM,0.117
same,relative viability,[3]; first compound 0.06325 µM,0.0474
same,relative viability,[3]; first compound 0.2 µM,0.0496
same,relative viability,[4]; first compound 0.002 µM,0.251
same,relative viability,[4]; first compound 0.006325 µM,0.298
same,relative viability,[4]; first compound 0.02 µM,0.26
same,relative viability,[4]; first compound 0.06325 µM,0.213
same,relative viability,[4]; first compound 0.2 µM,0.205
same,relative viability,[5]; first compound 0.002 µM,1.23
same,relative viability,[5]; first compound 0.006325 µM,0.988
same,relative viability,[5]; first compound 0.02 µM,0.906
same,relative viability,[5]; first compound 0.06325 µM,0.146
same,relative viability,[5]; first compound 0.2 µM,0.124
same,relative viability,[6]; first compound 0.002 µM,0.475
same,relative viability,[6]; first compound 0.006325 µM,0.406
same,relative viability,[6]; first compound 0.02 µM,0.428
same,relative viability,[6]; first compound 0.06325 µM,0.159
same,relative viability,[6]; first compound 0.2 µM,0.143
same,relative viability,[7]; first compound 0.002 µM,0.691
same,relative viability,[7]; first compound 0.006325 µM,0.699
same,relative viability,[7]; first compound 0.02 µM,0.792
same,relative viability,[7]; first compound 0.06325 µM,0.135
same,relative viability,[7]; first compound 0.2 µM,0.13
same,relative viability,[8]; first compound 0.002 µM,0.402
same,relative viability,[8]; first compound 0.006325 µM,0.404
same,relative viability,[8]; first compound 0.02 µM,0.426
same,relative viability,[8]; first compound 0.06325 µM,0.42
same,relative viability,[8]; first compound 0.2 µM,0.317
same,relative viability,[9]; first compound 0.002 µM,1.08
same,relative viability,[9]; first compound 0.02 µM,0.915
same,relative viability,[9]; first compound 0.06325 µM,0.183
same,relative viability,[9]; first compound 0.2 µM,0.179
same,relative viability,[10]; first compound 0.002 µM,1.11
same,relative viability,[10]; first compound 0.006325 µM,0.952
same,relative viability,[10]; first compound 0.02 µM,1.18
same,relative viability,[10]; first compound 0.06325 µM,0.593
same,relative viability,[10]; first compound 0.2 µM,0.24
same,relative viability,[11]; first compound 0.002 µM,0.41
same,relative viability,[11]; first compound 0.006325 µM,0.266
same,relative viability,[11]; first compound 0.02 µM,0.335
same,relative viability,[11]; first compound 0.06325 µM,0.133
same,relative viability,[11]; first compound 0.2 µM,0.113
same,relative viability,[12]; first compound 0.002 µM,0.479
same,relative viability,[12]; first compound 0.006325 µM,0.482
same,relative viability,[12]; first compound 0.02 µM,0.442
same,relative viability,[12]; first compound 0.06325 µM,0.312
same,relative viability,[12]; first compound 0.2 µM,0.0621
same,relative viability,[13]; first compound 0.002 µM,0.875
same,relative viability,[13]; first compound 0.006325 µM,0.812
same,relative viability,[13]; first compound 0.02 µM,0.699
same,relative viability,[13]; first compound 0.06325 µM,0.299
same,relative viability,[13]; first compound 0.2 µM,0.353
same,relative viability,[14]; first compound 0.002 µM,0.808
same,relative viability,[14]; first compound 0.006325 µM,0.599
same,relative viability,[14]; first compound 0.02 µM,0.668
same,relative viability,[14]; first compound 0.06325 µM,0.402
same,relative viability,[14]; first compound 0.2 µM,0.41
same,relative viability,[15]; first compound 0.002 µM,0.492
same,relative viability,[15]; first compound 0.006325 µM,0.512
same,relative viability,[15]; first compound 0.02 µM,0.427
same,relative viability,[15]; first compound 0.06325 µM,0.133
same,relative viability,[15]; first compound 0.2 µM,0.146
same,relative viability,[16]; first compound 0.002 µM,0.613
same,relative viability,[16]; first compound 0.006325 µM,0.611
same,relative viability,[16]; first compound 0.02 µM,0.773
same,relative viability,[16]; first compound 0.06325 µM,0.659
same,relative viability,[16]; first compound 0.2 µM,0.657
same,relative viability,[17]; first compound 0.002 µM,0.315
same,relative viability,[17]; first compound 0.006325 µM,0.307
same,relative viability,[17]; first compound 0.02 µM,0.34
same,relative viability,[17]; first compound 0.06325 µM,0.137
same,relative viability,[17]; first compound 0.2 µM,0.153
same,relative viability,[18]; first compound 0.002 µM,0.776
same,relative viability,[18]; first compound 0.006325 µM,0.755
same,relative viability,[18]; first compound 0.02 µM,0.548
same,relative viability,[18]; first compound 0.06325 µM,0.749
same,relative viability,[18]; first compound 0.2 µM,0.454
same,relative viability,[19]; first compound 0.002 µM,0.265
same,relative viability,[19]; first compound 0.006325 µM,0.256
same,relative viability,[19]; first compound 0.02 µM,0.284
same,relative viability,[19]; first compound 0.06325 µM,0.141
same,relative viability,[19]; first compound 0.2 µM,0.177
same,relative viability,[20]; first compound 0.002 µM,0.818
same,relative viability,[20]; first compound 0.006325 µM,0.898
same,relative viability,[20]; first compound 0.02 µM,0.189
same,relative viability,[20]; first compound 0.06325 µM,0.0968
same,relative viability,[20]; first compound 0.2 µM,0.0903
same,relative viability,[21]; first compound 0.002 µM,0.219
same,relative viability,[21]; first compound 0.006325 µM,0.236
same,relative viability,[21]; first compound 0.02 µM,0.214
same,relative viability,[21]; first compound 0.06325 µM,0.193
same,relative viability,[21]; first compound 0.2 µM,0.137
same,relative viability,[22]; first compound 0.002 µM,0.189
same,relative viability,[22]; first compound 0.006325 µM,0.164
same,relative viability,[22]; first compound 0.06325 µM,0.0959
same,relative viability,[22]; first compound 0.2 µM,0.0922
same,relative viability,[23]; first compound 0.002 µM,0.737
same,relative viability,[23]; first compound 0.006325 µM,0.843
same,relative viability,[23]; first compound 0.02 µM,0.762
same,relative viability,[23]; first compound 0.06325 µM,0.322
same,relative viability,[23]; first compound 0.2 µM,0.161
